In PubChem BioAssay AID192 (DTP/NCI, 2004):
Where “and” joins values, the source holds several entries; their conditions need not be identical. Identical values can stand only once. Inconclusive results and toxic doses are left out.

Test system: BDF1 mice, B16 melanoma ip, median survival T/C
Test: NCI In Vivo Anticancer Drug Screen. Data for tumor model B16 Melanoma (intraperitoneal) in B6D2F1 (BDF1) mice
Settings: endpoint: median survival time, higher = longer survival
Method in brief: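 In this screen, activity was judged from survival or tumor size in treated versus vehicle-treated tumor-bearing mice, reported as T/C.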

CCN(CC)c1ccc(C=Nc2cccc(C(F)(F)F)c2)cc1
T/C (dose: 50.0 mg/kg/injection, schedule: Q01DX009 (ip), vehicle: Klucel (hydroxypropylcellulose) (HPC)): 103 % of control | T/C (dose: 100.0 mg/kg/injection, schedule: Q01DX009 (ip), vehicle: Klucel (hydroxypropylcellulose) (HPC)): 96 % of control | T/C (dose: 200.0 mg/kg/injection, schedule: Q01DX009 (ip), vehicle: Klucel (hydroxypropylcellulose) (HPC)): 96 % of control

O=C(CC(O)(C(F)(F)F)C(F)(F)F)c1cccc2ccccc12
T/C (dose: 100.0 mg/kg/injection, schedule: Q04DX003 (ip), vehicle: Klucel (hydroxypropylcellulose) (HPC)): 90 % of control | T/C (dose: 200.0 mg/kg/injection, schedule: Q04DX003 (ip), vehicle: Klucel (hydroxypropylcellulose) (HPC)): 95 % of control | T/C (dose: 400.0 mg/kg/injection, schedule: Q04DX003 (ip), vehicle: Klucel (hydroxypropylcellulose) (HPC)): 102 % of control

O=C(CCCCl)CC(O)(C(F)(F)Cl)C(F)(F)Cl
T/C (dose: 25.0 mg/kg/injection, schedule: Q01DX009 (ip), vehicle: saline with Tween-80): 114 % of control | T/C (dose: 25.0 mg/kg/injection, schedule: Q04DX003 (ip), vehicle: saline with Tween-80): 97 % of control | T/C (dose: 50.0 mg/kg/injection, schedule: Q01DX009 (ip), vehicle: saline with Tween-80): 114 % of control | T/C (dose: 50.0 mg/kg/injection, schedule: Q04DX003 (ip), vehicle: saline with Tween-80): 102 % of control | T/C (dose: 100.0 mg/kg/injection, schedule: Q01DX009 (ip), vehicle: saline with Tween-80): 117 % of control | T/C (dose: 100.0 mg/kg/injection, schedule: Q04DX003 (ip), vehicle: saline with Tween-80): 105 % of control

O=S(=O)(O)c1cc(O)c2ccccc2c1
T/C (dose: 100.0 mg/kg/injection, schedule: Q01DX009 (ip), vehicle: saline): 107 % of control | T/C (dose: 200.0 mg/kg/injection, schedule: Q01DX009 (ip), vehicle: saline): 100 % of control | T/C (dose: 400.0 mg/kg/injection, schedule: Q01DX009 (ip), vehicle: saline): 102 % of control

CC(C)(C)OC(=O)C(CSSCC(NC(=O)OCc1ccccc1)C(=O)OC(C)(C)C)NC(=O)OCc1ccccc1 (stereo not given)
T/C (dose: 75.0 mg/kg/injection, schedule: Q01DX009 (ip), vehicle: Klucel (hydroxypropylcellulose) (HPC)): 94 % of control | T/C (dose: 150.0 mg/kg/injection, schedule: Q01DX009 (ip), vehicle: Klucel (hydroxypropylcellulose) (HPC)): 100 % of control | T/C (dose: 300.0 mg/kg/injection, schedule: Q01DX009 (ip), vehicle: Klucel (hydroxypropylcellulose) (HPC)): 88 % of control

N#CCC(=O)O
T/C (dose: 18.75 mg/kg/injection, schedule: Q01DX009 (ip), vehicle: saline): 109 % of control | T/C (dose: 37.5 mg/kg/injection, schedule: Q01DX009 (ip), vehicle: saline): 97 % of control

CO[C@H]1C[C@](C)(O)Cc2cc3c(c(O)c21)C(=O)c1c(O)cc2c(c1C3=O)O[C@@H]1O[C@@]2(C)[C@H](O)[C@@H](N(C)C)[C@@H]1O
T/C (dose: 0.78 mg/kg/injection, schedule: Q01DX009 (ip), vehicle: other): 110 % of control | T/C (dose: 1.56 mg/kg/injection, schedule: Q01DX009 (ip), vehicle: other): 118 % of control | T/C (dose: 2.3 mg/kg/injection, schedule: Q01DX005 (ip), vehicle: other): 169 % of control | T/C (dose: 2.3 mg/kg/injection, schedule: Q01DX005 (iv), vehicle: other): 97 % of control | T/C (dose: 2.3 mg/kg/injection, schedule: Q01DX009 (ip), vehicle: other): 194 % of control | T/C (dose: 3.12 mg/kg/injection, schedule: Q01DX009 (ip), vehicle: other): 159 % of control | T/C (dose: 3.13 mg/kg/injection, schedule: Q01DX009 (ip), vehicle: other): 167 % of control | T/C (dose: 4.5 mg/kg/injection, schedule: Q01DX005 (ip), vehicle: other): 200 % of control | T/C (dose: 4.5 mg/kg/injection, schedule: Q01DX005 (iv), vehicle: other): 110 % of control | T/C (dose: 4.5 mg/kg/injection, schedule: Q01DX005 (oral), vehicle: other): 95 % of control | T/C (dose: 4.5 mg/kg/injection, schedule: Q01DX009 (ip), vehicle: other): 185 % of control | T/C (dose: 4.5 mg/kg/injection, schedule: Q01DX009 (oral), vehicle: other): 99 % of control | T/C (dose: 6.25 mg/kg/injection, schedule: Q01DX009 (ip), vehicle: other): 173 % of control and 177 % of control and 183 % of control | T/C (dose: 9.0 mg/kg/injection, schedule: Q01DX005 (ip), vehicle: other): 213 % of control | T/C (dose: 9.0 mg/kg/injection, schedule: Q01DX005 (iv), vehicle: other): 112 % of control | T/C (dose: 9.0 mg/kg/injection, schedule: Q01DX005 (oral), vehicle: other): 97 % of control | T/C (dose: 9.0 mg/kg/injection, schedule: Q01DX009 (ip), vehicle: other): 272 % of control | T/C (dose: 9.0 mg/kg/injection, schedule: Q01DX009 (oral), vehicle: other): 107 % of control | T/C (dose: 10.8 mg/kg/injection, schedule: Q04DX003 (ip), vehicle: lactic acid): 203 % of control | T/C (dose: 12.5 mg/kg/injection, schedule: Q01DX009 (ip), vehicle: other): 167 % of control and 191 % of control and 209 % of control | T/C (dose: 18.0 mg/kg/injection, schedule: Q01DX001 (ip), vehicle: other): 158 % of control | T/C (dose: 18.0 mg/kg/injection, schedule: Q01DX001 (iv), vehicle: other): 100 % of control | T/C (dose: 18.0 mg/kg/injection, schedule: Q01DX005 (ip), vehicle: other): 236 % of control | T/C (dose: 18.0 mg/kg/injection, schedule: Q01DX005 (oral), vehicle: other): 108 % of control | T/C (dose: 18.0 mg/kg/injection, schedule: Q01DX009 (oral), vehicle: other): 116 % of control | T/C (dose: 25.0 mg/kg/injection, schedule: Q01DX001 (ip), vehicle: water): 100 % of control | T/C (dose: 36.0 mg/kg/injection, schedule: Q01DX001 (ip), vehicle: other): 153 % of control | T/C (dose: 36.0 mg/kg/injection, schedule: Q01DX001 (oral), vehicle: other): 103 % of control | T/C (dose: 36.0 mg/kg/injection, schedule: Q01DX005 (oral), vehicle: other): 121 % of control | T/C (dose: 72.0 mg/kg/injection, schedule: Q01DX001 (oral), vehicle: other): 119 % of control
